# From PubChem BioAssay AID517 (Columbia University Molecular Screening Center, 2006)
# The source made the active and inactive calls.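 The calls were made as follows: active = activity score of 15 or more, from fitted potency or summed per-dose inhibition z-scores, roughly IC50 of 5 µM; inactive = the rest.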
# System: HUVEC TNFalpha-induced E-selectin immunofluorescence imaging
# Test: E-selectin expression inhibitors, dose response, confirmation, imaging, HUVEC, immunofluorescence, TNFalpha stimulation (AID 517)
row,Structure (SMILES),IC50
1,CN(Cc1ccccc1)Cc1nc2c([nH]1)c(=O)[nH]c(=O)n2C,> 8 µM (inactive)
2,O=C(COn1nnc2ccc(C(F)(F)F)cc21)Nc1nnc(-c2ccccc2)o1,> 8 µM (inactive)
3,CC1=CC=CC2=NC(=O)CC(C)(C(=O)N(CC(=O)NC(C)C)C3CCCC3)N12 (stereo unspecified),> 8 µM (inactive)
4,Cc1ccc(N=C2NC(=O)CS2)c(C)c1,> 8 µM (inactive)
5,O=C1CC(c2ccc(S(=O)(=O)N3CCN(c4ccccc4)CC3)cc2)CN1 (stereo unspecified),> 8 µM (inactive)
6,CC(=O)Nc1sc2c(c1CN1CCN(c3ccccn3)CC1)CCCC2,> 8 µM (inactive)
7,O=C1CC(N2CCN(c3cccc(C(F)(F)F)c3)CC2)C(=O)N1c1ccccc1 (stereo unspecified),> 8 µM (inactive)
8,O=c1cc(NCc2ccccc2)nc2n1CCCS2,> 8 µM (inactive)
9,COC(=O)CCC(=O)Nc1cccc(Br)c1,> 8 µM (inactive)
10,COc1ccc(Cl)cc1NC(=O)CSc1nncn1-c1cccnc1,> 8 µM (inactive)
11,CC(C)C(C(=O)Nc1ccc2c(c1)OCO2)N1C(=O)c2ccccc2C1=O (stereo unspecified),> 8 µM (inactive)
12,O=C1c2ccccc2S(=O)(=O)N1Cc1nnc(-c2ccccc2Br)o1,> 8 µM (inactive)
13,CC1Oc2ccccc2N(CC(=O)N(Cc2ccccc2)Cc2ccccn2)C1=O (stereo unspecified),> 8 µM (inactive)
14,C=CS(=O)(=O)c1ccc(Oc2ccc(S(=O)(=O)C=C)cc2)cc1,0.55 µM
15,Cc1cc(NC(=O)CS(=O)(=O)c2cn(Cc3ccccc3Cl)c3ccccc23)no1,> 8 µM (inactive)
16,FC(F)Oc1cccc2cccnc12,> 8 µM (inactive)
17,CC1(C)CC(=O)C(C=NC(CCC(N)=O)C(=O)O)=C(O)C1 (stereo unspecified),> 8 µM (inactive)
18,COc1ccc(CCN2C(=O)CC(N3CCN(S(=O)(=O)c4ccccc4)CC3)C2=O)cc1 (stereo unspecified),> 8 µM (inactive)
19,O=C(Nc1ccc2[nH]c3c(c2c1)CCCC3)c1ccco1,> 8 µM (inactive)
20,O=C(NCCCN1CCCC1=O)c1cncc(Br)c1,> 8 µM (inactive)
21,COCCNC(=O)C1CCCN(c2ncccn2)C1 (stereo unspecified),> 8 µM (inactive)
22,COc1cccc2c1C(=O)c1c(O)c3c(c(O)c1C2=O)C[C@@](O)(C(C)=O)C[C@@H]3O[C@H]1C[C@H](N)[C@H](O)[C@H](C)O1,0.63 µM
23,Cc1cc(C)n(C2=NS(=O)(=O)c3ccccc32)n1,> 8 µM (inactive)

row,Structure (SMILES),IC50
1,COc1ccc(OC)c2[nH]c(=O)c(CCNC(=O)CC(C)C)cc12,> 8 µM (inactive)
2,C[C@H]1CCC/C=C/C2C[C@H](O)CC2[C@H](O)/C=C/C(=O)O1 (stereo partly specified),< 0.01 µM
3,O=C(O)CC1CCCC(c2ccccc2)C1=O (stereo unspecified),> 8 µM (inactive)
4,Cc1cc(NC(=O)COC(=O)c2cccc(S(=O)(=O)N3CCOCC3)c2)no1,> 8 µM (inactive)
5,N#CCCn1cnc2ccccc21,> 8 µM (inactive)
6,COc1ccc(CCn2c(O)c(C=NCc3cccnc3)c(=O)[nH]c2=O)cc1OC,> 8 µM (inactive)
7,CC(C)Cn1c(=O)c(C(=O)Nc2ccccc2S(N)(=O)=O)c(O)c2ccccc21,> 8 µM (inactive)
8,O=C(Nc1cccc(F)c1)c1ccc2c(c1)OCO2,> 8 µM (inactive)
9,COCCn1c(=O)[nH]c2cc(C(=O)NCc3cccnc3)ccc2c1=O,> 8 µM (inactive)
10,O=C(O)C1C2CCC(C2)C1C(=O)NCCCn1ccnc1 (stereo unspecified),> 8 µM (inactive)
11,O=S1(=O)C=C(Sc2nc3ccccc3s2)c2ccccc21,1.85 µM
12,N#Cc1c(NCc2ccccc2)ccnc1NCc1cccnc1,> 8 µM (inactive)
13,CC1CCN(CCC(=O)Nc2ccc(Br)cc2)CC1,> 8 µM (inactive)
14,O=C1COc2ccc(C(=O)NCc3ccco3)cc2N1,> 8 µM (inactive)
15,CN(C(=O)c1ccc2c(=O)n3c(nc2c1)CCCCC3)c1ccccc1,> 8 µM (inactive)
16,Cc1cc2oc(=O)cc(CN3CCCCC3)c2cc1C(C)C,> 8 µM (inactive)
17,COc1ccc(Cc2nc3ccc(S(N)(=O)=O)cc3[nH]2)cc1OC,> 8 µM (inactive)
18,CC[C@H]1CN2CCc3cc(OC)c(OC)cc3[C@@H]2C[C@@H]1C[C@H]1NCCc2cc(OC)c(OC)cc21,0.08 µM
19,FC(F)Oc1ccc(-c2csc(Cc3nnc4n3CCCCC4)n2)cc1,> 8 µM (inactive)
20,CCn1c(=N)n(CC(=O)c2ccco2)c2ccccc21,> 8 µM (inactive)
21,CCOC(=O)C1CCCN(C(=O)c2sc3nc(-c4ccccc4)cn3c2C)C1 (stereo unspecified),> 8 µM (inactive)
22,CCN(CC)S(=O)(=O)c1ccc2[nH]cc(C(=O)NCCC3=CCCCC3)c(=O)c2c1,> 8 µM (inactive)
23,O=C(Nc1ccc(SC(F)F)cc1)c1ccc2nccnc2c1,> 8 µM (inactive)

row,Structure (SMILES),IC50
1,O=C(c1ccc2c3c(cccc13)C(=O)N(O)C2=O)N1CCCCC1,> 8 µM (inactive)
2,O=C(CSc1ccc(-c2ccccc2)nn1)N1CCOCC1,> 8 µM (inactive)
3,O=C(Cc1cccs1)NCc1ccc(F)cc1,> 8 µM (inactive)
4,Cc1cc2c(cc1C)-c1nnnn1C(C)(C)C2,> 8 µM (inactive)
5,CCN(CC(=O)NC(=O)NCc1ccco1)Cc1nc2ccccc2c(=O)[nH]1,> 8 µM (inactive)
6,C=CCn1c(-c2ccccc2)n[nH]c1=S,> 8 µM (inactive)
7,COc1ccc(CCNC(=O)C2=COCCO2)cc1,> 8 µM (inactive)
8,Cc1ccc2[nH]c(=O)c(CN(CCc3ccccc3)Cc3nnnn3CC3CCCO3)cc2c1 (stereo unspecified),> 8 µM (inactive)
9,COc1ccc(OC(=O)c2cc3ccccc3o2)cc1,> 8 µM (inactive)
10,Cn1cccc1Cc1nnc(SCC(=O)N2CCOCC2)n1-c1ccc(F)cc1,> 8 µM (inactive)
11,Cc1ccc(C)c(-n2c(Cc3cc(=O)[nH]c(=O)[nH]3)nnc2SCC(=O)NCc2ccco2)c1,> 8 µM (inactive)
12,C=CCOC(=O)COc1cc(C)cc2oc(=O)c3c(c12)CCC3,> 8 µM (inactive)
13,CN(CCc1ccccn1)c1ncnc2[nH]ncc12,> 8 µM (inactive)
14,Cc1cc(N2C(=O)C3C4C=CC(C4)C3C2=O)ccc1Br (stereo unspecified),> 8 µM (inactive)
15,O=c1c2ccccc2nc(SCc2cn3ccsc3n2)n1-c1ccc(F)cc1,> 8 µM (inactive)
16,O=C(NCCN1CCOCC1)c1ccc(=O)oc1,> 8 µM (inactive)
17,CC1CN(C(=O)CSc2nnc(-c3ccncc3)n2-c2ccccc2)CC(C)O1 (stereo unspecified),> 8 µM (inactive)
18,COc1cccc2c1C(=O)c1c(O)c3c(c(O)c1C2=O)C[C@@](O)(C(=O)CO)C[C@@H]3O[C@H]1C[C@H](N)[C@H](O)[C@H](C)O1,3.2 µM
19,Cc1ccc(SC(C)c2nc(-c3ccccc3)no2)cc1 (stereo unspecified),> 8 µM (inactive)
20,COC(=O)C1=C(C)NC(C)=C(C(=O)OC)C1C(=O)OC1CCCCC1=O (stereo unspecified),> 8 µM (inactive)
21,COc1ccc(NC(=O)CSc2nnc(-c3ccccc3C)n2C)cc1,> 8 µM (inactive)
22,Cc1ccc(O)c(C(=O)c2cc(C#N)c(=O)n(CC3CCCO3)c2)c1 (stereo unspecified),> 8 µM (inactive)
23,COc1ccccc1OCC(O)COC(N)=O (stereo unspecified),> 8 µM (inactive)

row,Structure (SMILES),IC50
1,Nc1c2c(nc3ccccc13)N(c1ccccc1)CC2,> 8 µM (inactive)
2,Cc1c(NC2=NC3(CCCCC3)Cc3ccccc32)c(=O)n(-c2ccccc2)n1C,> 8 µM (inactive)
3,COc1ccc(-c2nnc(-c3cccs3)o2)cc1OC,> 8 µM (inactive)
4,C=CCNc1nc(C)nc(OC)n1,> 8 µM (inactive)
5,O=C(OCc1ccc2c(c1)OCO2)c1ccc(S(=O)(=O)N2CCCCC2)cc1,> 8 µM (inactive)
6,CCOC(=O)c1sc(NC(=O)CSc2n[nH]c(-c3ccccc3)n2)c(C#N)c1C,> 8 µM (inactive)
7,COc1ccc(C(=O)CSc2nnc(C3CCCCC3)n2N)c(OC)c1,> 8 µM (inactive)
8,Cc1nnc(SCCn2c(N3CC(C)CC(C)C3)nc3c2c(=O)n(C)c(=O)n3C)s1 (stereo unspecified),> 8 µM (inactive)
9,Cc1nc2ccccc2nc1OCC(=O)Nc1cc(C(F)(F)F)ccc1N1CCOCC1,> 8 µM (inactive)
10,Cc1c(O)c(CN2CCCC2)cc2c1oc(=O)c1ccccc12,> 8 µM (inactive)
11,CCCCSc1nc(O)c(C2OC(=O)c3c2ccc(OC)c3OC)c(=O)n1C (stereo unspecified),> 8 µM (inactive)
12,CCOC(=O)C1CCCN(C(=O)c2cc3c(=O)n4cccc(C)c4nc3n2C)C1 (stereo unspecified),> 8 µM (inactive)
13,COc1ccc2c(C)nc(Nc3nc(C)cc(C)n3)nc2c1,> 8 µM (inactive)
14,CCn1c(=O)n(CC(=O)N(C)Cc2ccccc2)c(=O)c2ccccc21,> 8 µM (inactive)
15,COc1ccccc1-c1c(C)nn2c(C)c(C(C)=O)cnc12,> 8 µM (inactive)
16,Cc1ccc(Nc2nc(N)nc(CN3CCCCCC3)n2)cc1,> 8 µM (inactive)
17,Cc1oc(-c2ccccc2Cl)nc1CSCC(=O)N1CCCC1,> 8 µM (inactive)
18,CC1CCN(C(=O)CSc2nc3ccccc3[nH]2)CC1,> 8 µM (inactive)
19,Fc1cc(F)c(F)c(SCCc2ccncc2)c1F,> 8 µM (inactive)
20,OC1C[N+]2(CCCCC2)C1,> 8 µM (inactive)
21,CCN(CC)CCCNC(=O)c1cn(C)c2ccc(S(=O)(=O)N(C)C)cc2c1=O,> 8 µM (inactive)
22,Cc1cnc(NC(=O)CSc2nc3ccccc3c(=O)[nH]2)s1,> 8 µM (inactive)
